Data published in patent US20060275268A1, “COMPOSITIONS FOR ACTIVATING THE INFILTRATION ACTIVITY OF DENDRITIC CELLS, AND IMMUNOPOTENTIATING AGENTS” (priority 2003, published 2006).

Columns and labels:
dendritic cells = assay: Infiltration activity of dendritic cells by the Transwell Chamber method (Matrigel); assay type: cell-based, human; details: for infiltration activity of immature and mature dendritic cells: 10 ng/ml added, FIG. 8
Experimental: Peripheral blood mononuclear cells (PBMCs) from healthy subjects were separated by Ficoll-Paque density gradient centrifugation. Peripheral blood mononuclear cells were dispersed at a cell density of 2×10^6 cells/ml in complete RPMI-1640e medium, and the resulting suspension is incubated at 37° C. for one hour to give adhesive cells. Nonadhesive cells were removed by washing five times with RPMI-1640 medium. The adhesive cells were cultured in RPMI medium containing 1000 U/ml GM-CSF and 1000 U/ml IL-4, 10% FBS, 25 mM HEPES, 2 mM L-glutamic acid, 50 μM 2-ME, 1% nonessential amino acids, and 2 mM sodium pyruvate under hypoxic conditions (oxygen concentration was 1%; herein, hypoxic conditions refer to conditions where the oxygen concentration is 1%) or normoxic conditions (oxygen concentration was 20%; herein, normoxic conditions refer to conditions where the oxygen concentration is 20%) at 37° C. under an 5% carbon dioxide atmosphere for six days with half of the medium being changed every day. On day six, the cells were collected and divided into two groups. The first group was cultured in a medium containing IL-4 and GM-CSF for one day, and then used as immature dendritic cells. […]
The infiltration activity of dendritic cells was measured by the Transwell Chamber method using the following procedure: a Matrigel was immobilized onto a membrane that separates a top chamber and a bottom chamber; after washing, dendritic cells were placed in the top chamber; 100 ng/ml recombinant human RANTES was placed in the bottom chamber when immature dendritic cells were used, or 100 ng/ml recombinant human MCP-3 was placed in the bottom chamber when mature dendritic cells were used; cells migrating into the bottom chamber were counted. […]
The mature dendritic cells obtained in Example 1 were cultured in the culture medium supplemented with 1 μM all-trans retinoic acid to induce their differentiation. Then, the infiltration activity of dendritic cells was determined by the same procedure described in Example 7.

MMP-9 mRNA = MMP-9 mRNA level in mature dendritic cells after induction of differentiation; assay type: cell-based, human; details: medium with 1 μM for three days, or 5 μM for one day then 1 μM for two days, FIG. 9
Experimental: Total RNA was isolated from the cultured cells (1×10^6 cells) using TRIzol reagent (Life Technologies). Each RNA sample (2 μg) was converted to cDNA in 50 μl of reaction mixture containing 75 mM KCl, 50 mM Tris-HCl (pH 8.3), 3 mM MgCl2, 10 mM dithiothreitol, 0.5 mM each of dNTPs, 2 μM random primer, and 1000 U of TaqMan Reverse Transcription reagent. Each cDNA (10 ng) was amplified in triplicate using an SYBR-Green PCR assay kit, and sequenced using an ABI PRISM 7900HT sequence Detection System. PCR was carried out by incubation at 50° C. for 2 minutes and then at 95° C. for 15 minutes, followed by 15 cycles of denaturation at 95° C., 30 cycles of annealing at 60° C., and extension at 72° C. for 1 minute. […] The mature dendritic cells obtained in Example 1 were cultured in the culture medium supplemented with 1 μM all-trans retinoic acid for three days or in the culture medium supplemented with 5 μM all-trans retinoic acid for one day. The cells were further cultured in the culture medium supplemented with 1 μM all-trans retinoic acid for two days, to induce the differentiation of the dendritic cells. After the induction of the differentiation, MMP-9 mRNA level in the cells was determined.

Compound	infiltration activity of immature and mature dendritic cells (dendritic cells; cells differentiated under hypoxic conditions)	infiltration activity of immature and mature dendritic cells (dendritic cells; cells differentiated under normoxic conditions)	MMP-9 mRNA level in the cells (MMP-9 mRNA)	infiltration activity of dendritic cells (dendritic cells; mature dendritic cells differentiated under hypoxic conditions, 1 μM in culture medium, FIG. 10)
TIMP-1 protein: TIMP-1 is an MMP-9-specific inhibitor; protein added at 10 ng/ml	not changed	reduced		
CC1=C(/C=C/C(C)=C/C=C/C(C)=C/C(=O)O)C(C)(C)CCC1 [all-trans retinoic acid]			increased	increased
